The values that follow come from patent US12459951B2, “Compounds that interact with RAS superfamily proteins for treatment of cancers, inflammatory diseases, rasopathies, and fibrotic disease” (SHY Therapeutics, LLC, priority 2022, dated 2025).

The test system of one test is MAPK p38 phosphorylation. Briefly: MAPK p38 Activation Assay (western blot), Panc-1. Conditions: at 10 μM, Panc-1 pancreatic cancer cell line; starred symbols = activation. The test is classed as cell-based, human. How it is done: Protocol for MAPK p38 Activation Assay
This assay is referred to as the “MAPK p38 Activation Assay” throughout this application.
Cell lines: Human tumor-derived pancreatic cancer cell line Panc-1 (expressing KRas G12D mutant) was purchased from American Type Culture Collection and grown in complete DMEM-High Glucose medium, supplemented with penicillin (100 U/mL), streptomycin (100 μg/mL), and 10% heat-inactivated FBS at 37° C. in a humidified incubator with 5% CO2.
Method 1: Cells were plated at 350000 cells/well density in a 12-well plate, allowed 3 hours to adhere to the plate, then starved in the appropriate medium in the presence of 0.5% FBS overnight. The small molecules to be tested were added to the cells in the final concentration of 10 μM in the presence of 0.3% DMSO for 6 hours incubation at 37° C. For IC50 value determination, serial dilutions of compounds were added to cells under the same conditions. Next, cells were stimulated with 1.5 ng/ml EGF for 15 minutes then cells were lysed with lysis buffer containing 1% Triton X-100, EDTA, and Halt™ Protease & Phosphatase Inhibitor Cocktail (Thermo Scientific). Protein concentration was assessed by BCA protein assay (Thermo Scientific). Phosphorylation level of MAPK p38 was determined by western blot.
Method 2: Cells were plated at 350000 cells/well density in a 12-well plate in 10% FBS. The next day small molecules to be tested were added to the cells in the final concentration of 10 μM in the presence of 0.3% DMSO for 6 hours incubation at 37° C. For IC50 value determination, serial dilutions of compounds were added to cells under the same conditions. Next, cells were lysed with lysis buffer containing 1% Triton X-100, EDTA, and Halt™ Protease & Phosphatase Inhibitor Cocktail (Thermo Scientific). Protein concentration was assessed by BCA protein assay (Thermo Scientific). Phosphorylation level of MAPK p38 was determined by western blot.
Western blot protocol: Equal amounts of protein (15-50 μg) were separated by SDS-PAGE and transferred to nitrocellulose membranes (Invitrogen by Thermo Fisher Scientific). The membrane was stained with Ponceau S Stain (Boston BioProducts) to verify uniform protein loading. Membranes were blocked with 10% milk and phosphorylation levels of MAPK p38 were assessed by incubating overnight at 4° C. with the following antibody: Phospho-p38 MAPK (Thr180/Tyr182), from Cell Signaling Technology. Then the membranes were incubated with HRP-conjugated secondary antibody (Jackson Immunoresearch, West Grove, PA). Bands were incubated in Amersham ECL Prime Western Blotting Detection Reagent (GE Healthcare) and visualized using the ChemiDoc MP imaging system (Bio-Rad).
(Immunoblotting shows a protein as a band on a membrane.)

Test [1] has as its system MiaPaca-2 (expressing KRAS G12C mutant). The experiment in a line: Proliferation Assay (Cell Viability Assay). It counts as cell-based. The following applies: Homo sapiens, MIA PaCa-2; read-out: Proliferation in MiaPaca-2: IC50. In short, it runs like this:
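MiaPaca-2 cells (KRAS G12C) were grown in DMEM-high glucose with 10% FBS, seeded at 2000–5000 cells/well and cultured overnight. Compounds were added at 10 μM final, or as serial dilutions for IC50, in 0.3% DMSO/10% FBS for 2–4 days at 37 °C, 5% CO2. Viability was measured with CellTiter 96 Aqueous One and % inhibition calculated.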

As to `COc1ccnc(Nc2nc(-c3nccn3C)nn3cc(-c4cccnc4)c(-c4ccccc4)c23)c1` [Compound 196, N-(4-Methoxypyridin-2-yl)-2-(1-methyl-1H-imidazol-2-yl)-5-phenyl-6-(pyridin-3-yl)pyrrolo[2,1-f][1,2,4]triazin-4-amine], in the test on MAPK p38 phosphorylation, the “% inh of MAPK p38 in Panc-1” value was “F (F = 31-74% inhibition)”. In addition, the IC50 in test [1] was < 150 nM.
`CO[C@H]1C[C@H](Nc2nc(-c3nccn3C)nn3cc(-c4ccccc4)c(-c4ccccc4)c23)C1` [Compound 203, N-((1r,3r)-3-Methoxycyclobutyl)-2-(1-methyl-1H-imidazol-2-yl)-5,6-diphenylpyrrolo[2,1-f][1,2,4]triazin-4-amine]: in the test on MAPK p38 phosphorylation, the “% inh of MAPK p38 in Panc-1” value is listed as “G (G = 75-99% inhibition)”. Further, in test [1], the IC50 was 510 to 1000 nM.
Take `COC[C@@H]1CC[C@@H]1CNc1nc(-c2ccccn2)nn2cc(-c3ccn(C(C)C)n3)c(C)c12` (racemic) [Compound 11, rac 6-(1-Isopropyl-1H-pyrazol-3-yl)-N-(((1S,2R)-2-(methoxymethyl)cyclobutyl)methyl)-5-methyl-2-(pyridin-2-yl)pyrrolo[2,1-f][1,2,4]triazin-4-amine]: in the test on MAPK p38 phosphorylation, the “% inh of MAPK p38 in Panc-1” value is “G* (G* = 75-99% activation)”. The IC50 in test [1] is > 1000 nM.
With `CO[C@H]1C[C@H](Nc2nc(-c3nccn3C)nn3cc(-c4ccc(CN)cc4)c(-c4ccccc4)c23)C1.Cl` [Compound 206, 6-(4-(Aminomethyl)phenyl)-N-((1r,3r)-3-methoxycyclobutyl)-2-(1-methyl-1H-imidazol-2-yl)-5-phenylpyrrolo[2,1-f][1,2,4]triazin-4-amine hydrochloride salt], the “% inh of MAPK p38 in Panc-1” value in the test with MAPK p38 phosphorylation is “E (E = 1-30% inhibition)”. Also, in test [1], the IC50 was > 1000 nM.
For the compound `CO[C@H]1CC[C@@H](Nc2nc(-c3nccn3C)nn3cc(-c4ccncc4)c(-c4ccccc4)c23)C1` (racemic) [Compound 200, rac N-((1R,3S)-3-Methoxycyclopentyl)-2-(1-methyl-1H-imidazol-2-yl)-5-phenyl-6-(pyridin-4-yl)pyrrolo[2,1-f][1,2,4]triazin-4-amine], the “% inh of MAPK p38 in Panc-1” value in the test on MAPK p38 phosphorylation was “E (E = 1-30% inhibition)”. Moreover, the IC50 in test [1] is > 1000 nM.
Consider `CO[C@H]1C[C@H](S(=O)(=O)Nc2nc(-c3nccn3C)nn3cc(-c4ccccc4)c(-c4ccccc4)c23)C1` [Compound 214, (1r,3r)-3-Methoxy-N-(2-(1-methyl-1H-imidazol-2-yl)-5,6-diphenylpyrrolo[2,1-f][1,2,4]triazin-4-yl)cyclobutane-1-sulfonamide], for which the “% inh of MAPK p38 in Panc-1” value with MAPK p38 phosphorylation is “G (G = 75-99% inhibition)”. The IC50 in test [1] was > 1000 nM.
The like results for `CO[C@H]1C[C@H](Nc2nc(-c3nccn3C)nn3cc(-c4ccc(OCCN)cc4)c(-c4ccccc4)c23)C1.Cl` [Compound 208, 6-(4-(2-Aminoethoxy)phenyl)-N-((1r,3r)-3-methoxycyclobutyl)-2-(1-methyl-1H-imidazol-2-yl)-5-phenylpyrrolo[2,1-f][1,2,4]triazin-4-amine hydrochloride salt] were, in that order, “G (G = 75-99% inhibition)” and > 1000 nM.
The like results for `COc1cccc(-c2cn3nc(-c4nccn4C)nc(O)c3c2C)c1Cl` [Compound 15, 6-(2-Chloro-3-methoxyphenyl)-5-methyl-2-(1-methyl-1H-imidazol-2-yl)pyrrolo[2,1-f][1,2,4]triazin-4-ol] were, in that order, “H* (H* ≥ 100% activation)” and > 1000 nM.
On to `COCCNc1nc(-c2nccn2C)nn2cc(-c3cccnc3)c(-c3ccccc3)c12` [Compound 195, N-(2-Methoxyethyl)-2-(1-methyl-1H-imidazol-2-yl)-5-phenyl-6-(pyridin-3-yl)pyrrolo[2,1-f][1,2,4]triazin-4-amine], for which, in the test on MAPK p38 phosphorylation, the “% inh of MAPK p38 in Panc-1” value is “E* (E* = 1-30% activation)”. Also, the IC50 in test [1] is > 1000 nM.
Take `COc1ccnc(Nc2nc(-c3nccn3C)nn3cc(-c4ccn(CCNC(=O)CCCC[C@H]5SC[C@H]6NC(=O)N[C@H]65)n4)c(C)c23)c1` [Compound 215, N-(2-(3-(4-((4-methoxypyridin-2-yl)amino)-5-methyl-2-(1-methyl-1H-imidazol-2-yl)pyrrolo[2,1-f][1,2,4]triazin-6-yl)-1H-pyrazol-1-yl)ethyl)-5-((3aR,4R,6aS)-2-oxohexahydro-1H-thieno[3,4-d]imidazol-4-yl)pentanamide]: in the test on MAPK p38 phosphorylation, the “% inh of MAPK p38 in Panc-1” value is on record as “F (F = 31-74% inhibition)”. Further, in test [1], the IC50 is > 1000 nM.
For the compound `CO[C@H]1C[C@@H](Nc2nc(-c3nccn3C)nn3cc(-c4cccnc4)c(-c4ccccc4)c23)C1` [Compound 191, N-((1s,3s)-3-Methoxycyclobutyl)-2-(1-methyl-1H-imidazol-2-yl)-5-phenyl-6-(pyridin-3-yl)pyrrolo[2,1-f][1,2,4]triazin-4-amine], the “% inh of MAPK p38 in Panc-1” value with MAPK p38 phosphorylation is listed as “E* (E* = 1-30% activation)”. In addition, the IC50 in test [1] is > 1000 nM.
`CO[C@H]1CC[C@@H](Nc2nc(-c3nccn3C)nn3cc(-c4cccnc4)c(-c4ccccc4)c23)C1` (racemic) [Compound 193, rac N-((1R,3S)-3-Methoxycyclopentyl)-2-(1-methyl-1H-imidazol-2-yl)-5-phenyl-6-(pyridin-3-yl)pyrrolo[2,1-f][1,2,4]triazin-4-amine]: the “% inh of MAPK p38 in Panc-1” value in the test with MAPK p38 phosphorylation was “E (E = 1-30% inhibition)”. Moreover, the IC50 in test [1] was > 1000 nM.
For the compound `COc1cccc(-c2cn3nc(-c4nccn4C)nc(N[C@H]4C[C@H](OC)C4)c3c2-c2ccccc2)c1C` [Compound 209, 6-(3-methoxy-2-methylphenyl)-N-((1r,3r)-3-methoxycyclobutyl)-2-(1-methyl-1H-imidazol-2-yl)-5-phenylpyrrolo[2,1-f][1,2,4]triazin-4-amine], the “% inh of MAPK p38 in Panc-1” value with MAPK p38 phosphorylation is listed as “H (H = 100% inhibition)”. Moreover, the IC50 in test [1] lay in the range of 150 to 500 nM.
Regarding `COc1ccnc(Oc2nc(-c3nccn3C)nn3cc(-c4ccn(C)n4)c(C)c23)c1` [Compound 220, 4-((4-Methoxypyridin-2-yl)oxy)-5-methyl-2-(1-methyl-1H-imidazol-2-yl)-6-(1-methyl-1H-pyrazol-3-yl)pyrrolo[2,1-f][1,2,4]triazine], in the test with MAPK p38 phosphorylation, the “% inh of MAPK p38 in Panc-1” value is “F (F = 31-74% inhibition)”. Also, the IC50 in test [1] was > 1000 nM.
For `COc1ccnc(Nc2nc(-c3nccn3C)nn3cc(-c4ccn(CCN)n4)c(C)c23)c1` [Compound 187, 6-(1-(2-Aminoethyl)-1H-pyrazol-3-yl)-N-(4-methoxypyridin-2-yl)-5-methyl-2-(1-methyl-1H-imidazol-2-yl)pyrrolo[2,1-f][1,2,4]triazin-4-amine], the “% inh of MAPK p38 in Panc-1” value in the test with MAPK p38 phosphorylation was “E* (E* = 1-30% activation)”. For the same compound, the IC50 in test [1] was > 1000 nM.
`COCCCS(=O)(=O)Nc1nc(-c2nccn2C)nn2cc(-c3ccccc3)c(-c3ccccc3)c12` [Compound 213, 3-Methoxy-N-(2-(1-methyl-1H-imidazol-2-yl)-5,6-diphenylpyrrolo[2,1-f][1,2,4]triazin-4-yl)propane-1-sulfonamide]: the “% inh of MAPK p38 in Panc-1” value with MAPK p38 phosphorylation is “F (F = 31-74% inhibition)”. In addition, the IC50 in test [1] was 510 to 1000 nM.
On to `CO[C@H]1C[C@H](Nc2nc(-c3nccn3C)nn3cc(-c4ccncc4)c(-c4ccccc4)c23)C1` [Compound 199, N-((1r,3r)-3-Methoxycyclobutyl)-2-(1-methyl-1H-imidazol-2-yl)-5-phenyl-6-(pyridin-4-yl)pyrrolo[2,1-f][1,2,4]triazin-4-amine], for which the “% inh of MAPK p38 in Panc-1” value in the test on MAPK p38 phosphorylation was “E (E = 1-30% inhibition)”. Besides, in test [1], the IC50 was > 1000 nM.
As for `COC1CCCN(c2nc(-c3ccccn3)nn3cc(-c4ccn(C(C)C)n4)c(C)c23)C1` (racemic) [Compound 12, rac 6-(1-Isopropyl-1H-pyrazol-3-yl)-4-(3-methoxypiperidin-1-yl)-5-methyl-2-(pyridin-2-yl)pyrrolo[2,1-f][1,2,4]triazine], the “% inh of MAPK p38 in Panc-1” value with MAPK p38 phosphorylation is “H* (H* ≥ 100% activation)”. For the same compound, the IC50 in test [1] was > 1000 nM.
